Assay results from patent US8324404B2, “3-thia-10-aza-phenanthrene derivatives” (Nycomed GmbH, priority 2004, dated 2012).

These molecules were tested against T1, PDE4B2 (Homo sapiens, UniProt Q07343) (assay: Inhibition of PDE4B2 activity, modified [3H]cAMP SPA (scintillation proximity assay) test). Conditions: recombinant PDE4B2 (GB no. M97515) expressed in SF21 insect cells; 0.5 μM cAMP; 15 min at 37° C.; read-out: PDE4 Inhibition [measured as −logIC50 (mol/l)] (converted).
T1 construct: made in house; host or cells: SF21 insect cells (baculovirus, pCR-Bac vector; virus made in SF9 cells)
Type: biochemical
Protocol: The PDE4B2 (GB no. M97515) was a gift of Prof. M. Conti (Stanford University, USA). It was amplified from the original plasmid (pCMV5) via PCR with primers Rb9 (5′-[…]-3′) and Rb10 (5′-[…]-3′) and cloned into the pCR-Bac vector (Invitrogen, Groningen, NL).
The recombinant baculovirus was prepared by means of homologous recombination in SF9 insect cells. The expression plasmids were cotransfected with Bac-N-Blue (Invitrogen, Groningen, NL) or Baculo-Gold DNA (Pharmingen, Hamburg) using a standard protocol (Pharmingen, Hamburg). Wt virus-free recombinant virus supernatants were selected using plaque assay methods. After that, high-titre virus supernatants were prepared by amplifying 3 times. PDE4B2 was expressed in SF21 cells by infecting 2×10^6 cells/ml with an MOI (multiplicity of infection) between 1 and 10 in serum-free SF900 medium (Life Technologies, Paisley, UK). The cells were cultured at 28° C. for 48-72 hours, after which they were pelleted for 5-10 min at 1000 g and 4° C.
The SF21 insect cells were resuspended, at a concentration of approx. 10^7 cells/ml, in ice-cold ([…]) homogenization buffer (20 mM Tris, pH 8.2, containing the following additions: 140 mM NaCl, 3.8 mM KCl, 1 mM EGTA, 1 mM MgCl2, 10 mM-mercaptoethanol, 2 mM benzamidine, 0.4 mM Pefablock, 10 μM leupeptin, 10 μM pepstatin A, 5 μM trypsin inhibitor) and disrupted by ultrasonication. The homogenate was then centrifuged for 10 min at 1000×g and the supernatant was stored at −80° C. until sub-sequent use (see below). The protein content was determined by the Bradford method (BioRad, Munich) using BSA as the standard.
PDE4B2 activity was inhibited by the said compounds in a modified SPA (scintillation proximity assay) test, supplied by Amersham Biosciences (see procedural instructions “phosphodiesterase [3H]cAMP SPA enzyme assay, code TRKO 7090”), carried out in 96-well microtitre plates (MTP's). The test volume is 100 μl and contains 20 mM Tris buffer (pH 7.4), 0.1 mg of BSA (bovine serum albumin)/ml, 5 mM Mg^2+, 0.5 μM cAMP (including about 50,000 cpm of [3H]cAMP), 1 μl of the respective substance dilution in DMSO and sufficient recombinant PDE (1000×g supernatant, see above) to ensure that 10-20% of the cAMP is converted under the said experimental conditions. […] After a preincubation of 5 min at 37° C., the reaction is started by adding the substrate (cAMP) and the assays are incubated for a further 15 min; after that, they are stopped by adding SPA beads (50 μl). […] After the beads have been sedimented (>30 min), the MTP's are analyzed in commercially available luminescence detection devices. The corresponding IC50 values of the compounds for the inhibition of PDE activities are determined from the concentration-effect curves by means of non-linear regression.

T1 sequence (Q07343 1-564 isoform Q07343-2): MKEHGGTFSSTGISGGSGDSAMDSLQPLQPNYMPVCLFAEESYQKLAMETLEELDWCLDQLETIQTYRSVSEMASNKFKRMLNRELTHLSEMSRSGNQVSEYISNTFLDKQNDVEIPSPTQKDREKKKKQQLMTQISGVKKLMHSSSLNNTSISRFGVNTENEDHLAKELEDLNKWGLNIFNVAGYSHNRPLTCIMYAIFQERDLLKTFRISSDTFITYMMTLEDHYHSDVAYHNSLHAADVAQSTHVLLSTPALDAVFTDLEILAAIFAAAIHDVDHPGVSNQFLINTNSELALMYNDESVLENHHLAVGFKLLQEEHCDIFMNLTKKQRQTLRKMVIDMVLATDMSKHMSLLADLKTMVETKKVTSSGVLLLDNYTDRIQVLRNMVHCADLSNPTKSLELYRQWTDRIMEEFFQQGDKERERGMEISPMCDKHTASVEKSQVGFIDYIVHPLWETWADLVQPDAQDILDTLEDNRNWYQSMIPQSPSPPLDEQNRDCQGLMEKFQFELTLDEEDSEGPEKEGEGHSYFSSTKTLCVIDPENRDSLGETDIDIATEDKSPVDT

Going from `CCOc1cc2c(cc1OC)C(c1ccc(C(=O)N(C(C)C)C(C)C)cc1)=N[C@@H]1CC[S+]([O-])C[C@H]21` (single isomer, unassigned) [Compound 2] to `CCOc1cc2c(cc1OC)C(c1ccc(C(=O)N(C(C)C)C(C)C)cc1)=N[C@@H]1CCSC[C@H]21` [Compound 1, 4-((4aR,10aR)-6-Ethoxy-7-methoxy-1,4,4a,10a-tetrahydro-2H-3-thia-10-aza-phenanthren-9-yl)-N,N-diisopropyl-benzamide], the IC50 falls from 145 nM to 0.724 nM (200-fold).

Compared with `CCOc1cc2c(cc1OC)C(c1ccc(C(=O)N(C(C)C)C(C)C)cc1)=N[C@@H]1CC[S+]([O-])C[C@H]21` (single isomer, unassigned) [Compound 3], `CCOc1cc2c(cc1OC)C(c1ccc(C(=O)N(C(C)C)C(C)C)cc1)=[N+]([O-])[C@@H]1CCS(=O)(=O)C[C@H]21` [Compound 5, 4-((4aR,10aR)-6-Ethoxy-7-methoxy-3,3-dioxo-10-oxy-1,2,3,4,4a,10a-hexahydro-3l^6-thia-10-aza-phenanthren-9-yl)-N,N-diisopropyl-benzamide] is 6-fold higher in IC50: 3.31 nM for the first, 20 nM for the second.
